# Assay: Mouse PK and tissue distribution study (non-compartmental analysis)
# Conditions: male, C57BL/6, mouse, in vivo; for Cmax: Cmax Obs; for Tmax: Tmax Obs
# Procedure: The in-life study (Animal Study Protocol Number: NIH ORS-51) was conducted at the NIH Animal Facility by the Division of Veterinary Resources (DVR, Bethesda, MD). In this study, 25–35 g male C57BL/6 mice (Charles River Laboratories, Frederick, MD) were used. For the IV groups, 66 mice (33 mice per dosing group, 3 mice per timepoint) were used for a single bolus IV dose of 3 or 10 mg/kg of PDN via tail vein injection. […] The IV and PO doses were selected to obtain a complete concentration profile in plasma and tissues, based on a preliminary study. Animals were not fasted in this study. […] All dosing solutions were freshly prepared on the day of dosing. At designated time points, blood samples were collected, and mice were euthanized with CO2 in accordance with NIH ARAC Guidelines after blood collection. The death was ensured by cervical dislocation or transthoracic puncture. Lung, liver, adipose, brain, heart, small intestine, kidney, skeletal muscle, and spleen samples were obtained from mice. […] Tissue samples were rinsed with cold saline, dried on filtrate paper, weighed, and snap frozen by placing into dry ice after collection. All samples were stored at −80°C until the analysis. All blood samples were collected in K2EDTA tubes and centrifuged at 3000 g for 10 min at 4°C to obtain plasma. Plasma samples were transferred to tubes preloaded with NaF (final concentration at 5 mM in 200 µL plasma) and stored at −80°C until analysis.
# For fat tissue, an additional 3-fold volume of acetonitrile was added to the water homogenate and was vortexed in a shaker for another 30 min.
# A 10 μ aliquot of samples, blank controls (blank plasma or tissue homogenates), quality controls (QC), and standards were added into 200 μ acetonitrile solution with 100 ng/mL tolbutamide (internal standard, IS). All samples were then thoroughly shaken for 5 min to precipitate proteins. The samples were centrifuged at 3000 rpm and 4°C for 30 min. The supernatant was injected for UPLC-MS/MS analysis.
# The mobile phase consisted of 0.1% formic acid in water (A) and 0.1% formic acid in acetonitrile (B), the flow rate was 600 μL/min. […] All analyses were carried out using a Waters Acquity I-Class UPLC interfaced with a Waters Xevo TQ-S mass spectrometer. The mass spectrometer multiple reaction monitoring (MRM) experiment was operated with an ESI source at negative mode with spray voltage of 1 kV, and temperature of 600°C. Both Q1 and Q3 were set at unit resolution. […] The correlation coefficients of the calibration curves were all greater than 0.99. […] The linear range, precision and accuracy of QCs in various tissues and plasma are shown in Supplementary Table S1 and Supplementary Table S2.
# The area under the concentration vs. time curve (AUC) was calculated using the linear trapezoidal method. The terminal rate constant (λ) was obtained from the slope of at least three data points of the apparent terminal phase of the log linear concentration vs. time curve. AUC0–∞ was estimated as the sum of the AUC0–t (where t is the time of the last measurable concentration) and Ct/λ. […] Bioavailability (F) was calculated using ratios of dose-normalized AUC of PO and IV administration.
# [1] = po, 10 mg/kg, mice, PO 10 mg/kg PDN, adipose
# [2] = po, 10 mg/kg, mice, PO 10 mg/kg PDN, brain
# [3] = po, 10 mg/kg, mice, PO 10 mg/kg PDN, heart
# [4] = po, 10 mg/kg, mice, PO 10 mg/kg PDN, intestine
smiles,measurement,setting,value
O=C(Nc1ccc([N+](=O)[O-])cc1Cl)c1cc(Cl)ccc1OC(=O)N1CCNCC1 [PDN],Kp,,8 to 44
same,AUC(0-inf),"iv, 3 mg/kg",1190 ng·h/mL
same,clearance,"iv, 3 mg/kg, CLp Obs, mice, IV 3 mg/kg PDN, plasma",1.05 mL/min
same,Vd,"iv, 3 mg/kg, Vdss Obs, mice, IV 3 mg/kg PDN, plasma",0.28 L
same,half-life,"iv, 3 mg/kg, t1/2 Obs, mice, IV 3 mg/kg PDN, adipose",2.78 h
same,half-life,"iv, 3 mg/kg, t1/2 Obs, mice, IV 3 mg/kg PDN, brain",2.23 h
same,half-life,"iv, 3 mg/kg, t1/2 Obs, mice, IV 3 mg/kg PDN, heart",1.71 h
same,half-life,"iv, 3 mg/kg, t1/2 Obs, mice, IV 3 mg/kg PDN, intestine",2.69 h
same,half-life,"iv, 3 mg/kg, t1/2 Obs, mice, IV 3 mg/kg PDN, kidney",3.1 h
same,half-life,"iv, 3 mg/kg, t1/2 Obs, mice, IV 3 mg/kg PDN, lung",3.09 h
same,half-life,"iv, 3 mg/kg, t1/2 Obs, mice, IV 3 mg/kg PDN, muscle",1.91 h
same,half-life,"iv, 3 mg/kg, t1/2 Obs, mice, IV 3 mg/kg PDN, plasma",3.07 h
same,half-life,"iv, 3 mg/kg, t1/2 Obs, mice, IV 3 mg/kg PDN, spleen",3.44 h
same,AUC(0-inf),"iv, 10 mg/kg",4100 ng·h/mL
same,clearance,"iv, 10 mg/kg, CLp Obs, mice, IV 10 mg/kg PDN, plasma",1.02 mL/min
same,Vd,"iv, 10 mg/kg, Vdss Obs, mice, IV 10 mg/kg PDN, plasma",0.31 L
same,half-life,"iv, 10 mg/kg, t1/2 Obs, mice, IV 10 mg/kg PDN, brain",3.39 h
same,half-life,"iv, 10 mg/kg, t1/2 Obs, mice, IV 10 mg/kg PDN, heart",2.86 h
same,half-life,"iv, 10 mg/kg, t1/2 Obs, mice, IV 10 mg/kg PDN, intestine",3.78 h
same,half-life,"iv, 10 mg/kg, t1/2 Obs, mice, IV 10 mg/kg PDN, kidney",4.78 h
same,half-life,"iv, 10 mg/kg, t1/2 Obs, mice, IV 10 mg/kg PDN, liver",3.6 h
same,half-life,"iv, 10 mg/kg, t1/2 Obs, mice, IV 10 mg/kg PDN, lung",3.51 h
same,half-life,"iv, 10 mg/kg, t1/2 Obs, mice, IV 10 mg/kg PDN, muscle",4.65 h
same,half-life,"iv, 10 mg/kg, t1/2 Obs, mice, IV 10 mg/kg PDN, plasma",3.52 h
same,half-life,"iv, 10 mg/kg, t1/2 Obs, mice, IV 10 mg/kg PDN, spleen",3.24 h
same,half-life,"iv, 10 mg/kg, t1/2 in all other tissues, mice, IV 3 and 10 mg/kg PDN",1.7 to 4.8 h
same,half-life,"iv, 10 mg/kg, terminal t1/2 in plasma, mice, IV 3 and 10 mg/kg PDN",3.1 to 3.5 h
same,clearance,"iv, 10 mg/kg, total plasma clearance (CLp), mice, IV 3 and 10 mg/kg PDN",1.02 to 1.05 mL/min
same,Vd,"iv, 10 mg/kg, volume of distribution at steady-state (Vdss), mice, IV 3 and 10 mg/kg PDN",0.28 to 0.31 L
same,AUC(0-inf),"po, 10 mg/kg",3520 ng·h/mL
same,CL/F,"po, 10 mg/kg",1.18 mL/min
same,Vd/F,"po, 10 mg/kg",0.33 L
same,Cmax,[1],547 ng/g
same,Cmax,[2],715 ng/g
same,Cmax,[3],3040 ng/g
same,Cmax,[4],15400 ng/g
same,Cmax,"po, 10 mg/kg, mice, PO 10 mg/kg PDN, kidney",5860 ng/g
same,Cmax,"po, 10 mg/kg, mice, PO 10 mg/kg PDN, liver",240 ng/g
same,Cmax,"po, 10 mg/kg, mice, PO 10 mg/kg PDN, lung",22600 ng/g
same,Cmax,"po, 10 mg/kg, mice, PO 10 mg/kg PDN, muscle",1120 ng/g
same,Cmax,"po, 10 mg/kg, mice, PO 10 mg/kg PDN, plasma",606 ng/mL
same,Cmax,"po, 10 mg/kg, mice, PO 10 mg/kg PDN, spleen",8080 ng/g
same,bioavailability,"po, 10 mg/kg, F (bioavailability) Obs, mice, PO 10 mg/kg PDN",85.6%
same,Tmax,[1],1.5 h
same,Tmax,[2],1.5 h
same,Tmax,[3],1.5 h
same,Tmax,[4],0.167 h

# From publication PMC10126473 (Frontiers in Pharmacology, 2023)
